This is an account of results in patent US20080160101A1, “Composition For Use Against One Or More Pathogens” (Bionext, priority 2004, published 2008).

One assay has as its system Penicillium expansum. Put plainly: Protection of wounded apples against postharvest rot caused by Penicillium expansum (lesion diameter, percentage of protection). The format is in vivo. Details: Average infection: unit not given here. The protocol: Apples (Malus domestica Borkh cv. Golden) were harvested from commercial orchards maintained with standard cultural practices in Belgium and placed in regular long term storage. Commercial class I fruits were used. They were bought from wholesale dealers and stored in a cold room at 4±1° C. for maximum 15 days before use.
Penicillium expansum (blue mould) strains were initially isolated from apples in Gembloux Belgium. Conidia from pathogen were put in suspension in a glycerol solution (25%) and stored at −70° C. Starting from this stored material, the fungal strain was transferred to PDA medium at 25° C. Conidial suspensions were prepared in an aqueous sterile solution of Tween 20 (0.05%), and were adjusted to the required concentration (10^6 spores/ml) using a Bürker cell.
The antagonistic yeast strain was Candida oleophila Montrocher deposited under number 40564 at the BBCM™/MUCL Culture Collection of the Mycotheque de l'Universite Catholique de Louvain, hereinafter designated as “strain 0”.
This antagonistic yeast strain was isolated from apple surface and stored at −70° C. in a glycerol solution (25%). Before use, the yeast strain was subcultured three times successively at 24 hours intervals on PDA (Potato Dextrose Agar). At the third generation, yeast cells were removed from the culture medium and suspended in isotonic water (NaCl 0.85%). Suspension concentrations were adjusted to the required values after the establishment of a regression line in relation with the micro-organisms suspension absorbance (at 595 nm) and the number of colony forming units (cfu) of the same suspension spread onto PDA.
Fruits were disinfected by dipping for 2 minutes in sodium hypochlorite (10% of the commercial product). They were rinsed in sterile water and dried out under laminar flux before being wounded by removing 4 mm diameter and 2-3 mm deep blocks of tissue from three sites 4-5 cm apart along one side of the surface of the fruits.
The wounds were treated by application of 40 μl of compositions of the state of the art or compositions according to the invention.
After a 24 h at 20° C. incubation period in plastic boxes, the wounds were inoculated with 40 μl of the respective conidial suspensions of the pathogens. The fruits were incubated at 25° C.
[…] At least five fruits (15 wounds) were used per treatment. Most of the time, 15 fruits and 45 wounds were used per treatment.
The percentage of protection provided by the different treatments was calculated from the diameter of lesion caused by the fruit rot agent after the incubation time using the following formula: […]
wherein Y is the percentage of protection; DT is the mean diameter of lesions for the untreated control and DX is the mean diameter of lesions for the treated fruits.
The effect of the compositions according to the invention against postharvest apple rots caused by P. expansum was evaluated under controlled conditions.
(§1) The apples were wounded as described in Example 2 and treated by application of compositions comprising a salt according to the invention and 10^5 cfu C. oleophila, or compositions of the state of the art.
After incubation, the wounds were inoculated with Penicillum expansum. The fruits are further incubated. […] The percentage of protection provided by the different treatments was calculated as described in Example 2.
as §1

Another assay deals with Botrytis cinerea. In words: Protection of wounded apples against Botrytis cinerea (lesion diameter, percentage of protection). Type of assay: in vivo. The conditions noted are these: for results of combination of salt with C. oleophila, in words (conclusions): salt combined with C. oleophila, apples, salts tested only in Example 5; for Average infection / Efficiency %: Table 10, salt + strain O 10^5, CaCl2 20 g/l, CG 2 g/l, CGt 1.805 g/l, TC 0.848 g/l, PC 0.964 g/l, 5 days.

The mark [1] stands for this setting: Table 6a, salt + strain O 10^5, CG 2 g/l, TC 0.87 g/l, CCa 0.47 g/l, CL 1.34 g/l, CLG 1.3 g/l, CA 1.96 g/l, 7 days.
Setting [2] is: Table 6b, salt + strain O 10^5, CG 2 g/l, TC 0.87 g/l, CCa 0.47 g/l, CL 1.34 g/l, CLG 1.3 g/l, CA 1.96 g/l, 7 days.
Setting [3] is: salt combined with C. oleophila, apples.
Where [4] appears, read: Table 8, salt + strain O 10^5, CaCl2 20 g/l, CG 2 g/l, CCa 0.47 g/l, CBC 0.762 g/l, CPT 0.486 g/l, CPM 1.485 g/l, 7 days.
Where [5] appears, read: Table 9, salt + strain O 10^5, CaCl2 20 g/l, CG 2 g/l, CCa 0.47 g/l, CBC 0.762 g/l, CPT 0.486 g/l, CPM 1.485 g/l, 11 days.
Where [6] appears, read: salt + strain O 10^5 cfu/ml compared with strain O alone.
Where [7] appears, read: Table 7, salt + strain O 10^5, CaCl2 20 g/l, CG 2 g/l, TC 0.87 g/l, CCA 0.47 g/l.
The mark [8] stands for this setting: Table 3, first series, CG 2 g/l + strain O 10^5 cfu/ml, 7 days.
Where [9] appears, read: Table 4, second series, CG 2 g + strain O 10^5 cfu/ml, 7 days.
Setting [10] is: Table 5, third series, CG 2 g + strain O 10^5 cfu/ml, 7 days.

Several values for one entry are separate records, joined by “and”; a condition that tells them apart may be missing. Equal values may be shown once. Entries after “also recorded” stand apart in the source; their conditions may differ.

As to `O=[N+]([O-])[O-].O=[N+]([O-])[O-].[Ca+2]` [CN, Calcium Nitrate, reference compound], in the assay on Penicillium expansum (in vivo), the Average infection is 7.6 and 10.9; the “protection against P. expansum, in words” value is “less efficient”.
As to calcium lactogluconate [CLG], the Average infection with Penicillium expansum (setting [1]) came out at 5.6; in the assay with Penicillium expansum (setting [2]) it was 6.21. In addition, the Efficiency % in the assay on Penicillium expansum (setting [1]) is on record as 69.4%; in the assay with Penicillium expansum (setting [2]), 86.3%. Moreover, the “results of combination of salt with C. oleophila, in words (conclusions)” value (from here on “results of combination of salt”) in the assay on Penicillium expansum (setting [3]) is “Very good results”.
With `O=C([O-])[O-].[Ca+2]` [CCa, calcium carbonate], in the assay on Penicillium expansum (in vivo), the Efficiency % was 77.9% and 92.8% and 97.2% and 88.6% and 85.1%; the “protection against P. expansum, in words” value is given as “good protection”; the “results of combination of salt” value was “Very good results”.
calcium bicarbonate [CBC]: in the assay with Penicillium expansum (setting [4]), the Average infection stood at 0.5 and the Efficiency % is 76.5%. In addition, in the assay with Penicillium expansum (setting [5]), the Average infection is given as 2.1 and the Efficiency % is listed as 59.0%. In the assay on Penicillium expansum (setting [6]), the “protection against P. expansum, in words” value was “good protection”. In the assay with Penicillium expansum (setting [3]), the “results of combination of salt” value is “Very good results”.
Regarding `N[C@@H](CCC(=O)[O-])C(=O)[O-].[K+].[K+]` [potassium glutamate], the “results of combination of salt” value in the assay with Botrytis cinerea is “Very good results”.
With `O=C([O-])CC(O)(CC(=O)[O-])C(=O)[O-].[K+].[K+].[K+]` [PC, potassium citrate], in the assay with Botrytis cinerea, the Average infection was found to be 0.5; the Efficiency % came to 66.4%; the “results of combination of salt” value was “Very good results”.
Take `[Ca+2].[Cl-].[Cl-]` [CaCl2, reference compound]: the Average infection is 0.3 in the assay with Botrytis cinerea, 0.7 with Penicillium expansum (setting [7]), 0.3 in the assay on Penicillium expansum (setting [4]) and 0.6 with Penicillium expansum (setting [5]). For the same molecule, the Efficiency % with Botrytis cinerea is given as 82.4%; with Penicillium expansum (setting [7]), 97.4%; in the assay with Penicillium expansum (setting [4]), 87.6%; in the assay with Penicillium expansum (setting [5]), 87.7%.
Take `O=P([O-])([O-])[O-].O=P([O-])([O-])[O-].[Ca+2].[Ca+2].[Ca+2]` [CPT, calcium phosphate tribasic]: in the assay on Penicillium expansum (setting [4]), the Average infection amounted to 0.4 and the Efficiency % is 84.1%. Moreover, in the assay on Penicillium expansum (setting [5]), the Average infection turned out to be 0.9 and the Efficiency % turned out to be 82.1%. Also, in the assay on Penicillium expansum (setting [6]), the “protection against P. expansum, in words” value was “good protection”. Further, the “results of combination of salt” value in the assay with Penicillium expansum (setting [3]) is reported as “Very good results”.
Consider `N[C@@H](CCC(=O)[O-])C(=O)[O-].[Ca+2]` [CGt, calcium glutamate], for which, in the assay with Botrytis cinerea, the Average infection was 0.8 and the Efficiency % is 51.3%.
On to calcium gluconate [CG], for which the Efficiency % was found to be 60.7% in the assay on Botrytis cinerea; 73.8% in the assay on Penicillium expansum (setting [1]); 74.2% with Penicillium expansum (setting [2]); 93.5% in the assay with Penicillium expansum (setting [7]); 77.4% in the assay on Penicillium expansum (setting [4]); 70.5% in the assay with Penicillium expansum (setting [5]). Besides, the Average infection in the assay with Penicillium expansum (setting [8]) was determined as 1.5; with Penicillium expansum (setting [9]), 1.2; with Penicillium expansum (setting [10]), 2.7; in the assay on Penicillium expansum (setting [1]) it was 4.8; with Penicillium expansum (setting [2]), 6.50; in the assay with Penicillium expansum (setting [7]), 1.7. Moreover, the results for the Average infection in the assay with Penicillium expansum (setting [4]) and in the assay with Penicillium expansum (setting [5]) were 0.5 and 1.5, respectively. Also, the entries for the “Protection Efficiency %” value with Penicillium expansum (setting [8]), with Penicillium expansum (setting [9]) and in the assay on Penicillium expansum (setting [10]) were 87.3%, 90.7% and 79.3%, respectively. In addition, the “protection against P. expansum, in words” value with Penicillium expansum (setting [6]) is “improved the protection; also recorded: better and enhanced efficacy”; with Penicillium expansum (salt + strain O 10^5 cfu/ml compared with strain O alone, listed as calcium gluconate), “good protection”. For the same molecule, the “results of combination of salt” value in the assay with Penicillium expansum (setting [3]) is “Very good results”.
Consider `CC(O)C(=O)[O-].CC(O)C(=O)[O-].[Ca+2]` (stereo not drawn) [CL, calcium lactate], for which, in the assay with Penicillium expansum (setting [1]), the Average infection was found to be 7.7 and the Efficiency % was 58.1%. Further, in the assay on Penicillium expansum (setting [2]), the Average infection came out at 6.06 and the Efficiency % stood at 82.5%. Also, the “results of combination of salt” value with Penicillium expansum (in vivo) is given as “Very good results”.
Take `O=P([O-])(O)O.O=P([O-])(O)O.[Ca+2]` [CPM, calcium phosphate monobasic]: the Average infection with Penicillium expansum (setting [4]) was determined as 0.1; with Penicillium expansum (setting [5]) it was 0.7. Moreover, the figures for the Efficiency % with Penicillium expansum (setting [4]) and with Penicillium expansum (setting [5]) were 94.4% and 86.6%, respectively. Also, the “protection against P. expansum, in words” value in the assay with Penicillium expansum (setting [6]) was “good protection”. Further, the “results of combination of salt” value with Penicillium expansum (setting [3]) was “Very good results”.
On to `O=C([O-])CC(O)(CC(=O)[O-])C(=O)[O-].O=C([O-])CC(O)(CC(=O)[O-])C(=O)[O-].[Ca+2].[Ca+2].[Ca+2]` [TC, tricalcium citrate], for which the Average infection with Botrytis cinerea amounted to 0.3; in the assay with Penicillium expansum (setting [1]), 2.8; with Penicillium expansum (setting [2]), 6.67; in the assay on Penicillium expansum (setting [7]), 1.0. For the same molecule, the Efficiency % in the assay with Botrytis cinerea was 78.9%; with Penicillium expansum (setting [1]), 84.8%; in the assay with Penicillium expansum (setting [2]) it was 83.3%; in the assay with Penicillium expansum (setting [7]), 96.4%. The “results of combination of salt” value in the assay with Penicillium expansum (in vivo) is reported as “Very good results”.
For calcium ascorbate, the values for the Average infection in the assay on Penicillium expansum (setting [1]) and with Penicillium expansum (setting [2]) were 5.4 and 5.31, respectively. The Efficiency % in the assay with Penicillium expansum (setting [1]) worked out at 70.9%; in the assay on Penicillium expansum (setting [2]), 86.7%. Also, the “results of combination of salt” value with Penicillium expansum (in vivo) is “Very good results”.
